The values below come from patent US5935951A, “1-acyl-4-aliphatylaminopiperidine compounds” (Novartis Finance Corporation, priority 1994, dated 1999).

The target in the test is T1, 3H-substance P binding to the bovine retina (Bos taurus, UniProt F1MIX5).
T1 construct: from tissue; host or cells: bovine retina
Briefly: radioreceptor assay: binding of 3H-substance P to the bovine retina (according to H. Bittiger). The following applies: in vitro, read-out: in vitro values: inhibition of the binding of 3H-substance P to the bovine retina.

SMILES strings stand for the structures. Where a name gives a salt, the structure may show the parent alone.

T1 sequence (F1MIX5 1-407): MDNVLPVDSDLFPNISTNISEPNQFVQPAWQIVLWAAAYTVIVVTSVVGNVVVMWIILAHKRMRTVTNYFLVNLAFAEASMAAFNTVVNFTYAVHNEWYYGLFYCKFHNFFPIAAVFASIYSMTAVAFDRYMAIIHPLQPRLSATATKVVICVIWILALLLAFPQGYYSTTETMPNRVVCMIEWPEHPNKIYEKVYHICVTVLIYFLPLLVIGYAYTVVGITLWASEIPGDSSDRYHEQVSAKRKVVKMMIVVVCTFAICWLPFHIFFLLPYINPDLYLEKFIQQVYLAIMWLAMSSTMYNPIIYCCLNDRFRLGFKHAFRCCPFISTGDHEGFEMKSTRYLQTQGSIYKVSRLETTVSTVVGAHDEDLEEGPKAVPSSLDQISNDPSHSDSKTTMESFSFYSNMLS

In the case of `CN(C)CCCOC(=O)N[C@H]1CCN(C(=O)c2cc(C(F)(F)F)cc(C(F)(F)F)c2)[C@H](Cc2ccccc2)C1` [16 (2nd compound), 3-dimethylaminopropyl (2R,4S)-N-[2-benzyl-1-(3,5-bistrifluoromethylbenzoyl)piperidin-4-yl]carbamate], the IC50 stood at 11 nM.

`CCNC(=O)N[C@H]1CCN(C(=O)c2cc(C(F)(F)F)cc(C(F)(F)F)c2)[C@H](Cc2ccc(Cl)cc2)C1` [45 (c), (2R,4S)-1-[1-(3,5-bistrifluoromethylbenzoyl)-2-(4-chlorobenzyl)piperdin-4-yl]-3-ethylurea]: the IC50 stood at 7.6 nM.

`NC(=O)CN[C@H]1CCN(C(=O)c2cc(C(F)(F)F)cc(C(F)(F)F)c2)[C@H](Cc2ccccc2)C1` [Example 2, (2R,4S)-2-[2-Benzyl-1-(3,5-bistrifluoromethylbenzoyl)piperidin-4-ylamino]-acetamide hydrochloride]: the IC50 turned out to be 10 nM.

`CCCC(=O)N[C@H]1CCN(C(=O)c2cc(C(F)(F)F)cc(C(F)(F)F)c2)[C@H](Cc2ccc(Cl)cc2)C1` [Example 28, (2R,4S)-N-[1-(3,5-Bistrifluoromethylbenzoyl)-2-(4-chlorobenzyl)piperidin-4-yl]-butyramide]: the IC50 turned out to be 11 nM.

Take `O=C(NC1CCCCC1)N[C@H]1CCN(C(=O)c2cc(C(F)(F)F)cc(C(F)(F)F)c2)[C@H](Cc2ccccc2)C1` [Example 45 (f), (2R,4S)-1-[2-benzyl-1-(3,5-bistrifluoromethylbenzoyl)piperidin-4-yl]-3-cyclohexylurea]: the IC50 was 9 nM.
